Earlier results, collected in patent publication US20030073219A1, “Crystal structure” (priority 2001, published 2003).

Molecular target: ApbA protein (ketopantoate reductase) (Salmonella typhimurium, UniProt P37402)
Conditions: purified ApbA protein from S. typhimurium; substrate/cofactor KM; read-out: apparent KM

Chain of ApbA protein (ketopantoate reductase) (P37402 whole entry): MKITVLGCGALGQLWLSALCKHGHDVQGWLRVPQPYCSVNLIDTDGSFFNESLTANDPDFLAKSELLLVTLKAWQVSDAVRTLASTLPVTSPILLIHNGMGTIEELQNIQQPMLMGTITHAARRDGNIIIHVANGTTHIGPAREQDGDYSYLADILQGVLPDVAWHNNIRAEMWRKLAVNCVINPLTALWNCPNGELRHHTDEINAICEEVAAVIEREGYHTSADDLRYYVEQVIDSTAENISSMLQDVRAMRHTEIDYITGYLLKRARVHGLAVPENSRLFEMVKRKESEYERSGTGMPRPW

| SMILES | Km [µM] |
| --- | --- |
| CC(C)(CO)C(=O)C(=O)O [ketopantoate] | 740 |
| NC(=O)C1=CN([C@@H]2O[C@H](COP(=O)(O)OP(=O)(O)OC[C@H]3O[C@@H](n4cnc5c(N)ncnc54)[C@H](OP(=O)(O)O)[C@@H]3O)[C@@H](O)[C@H]2O)C=CC1 [NADPH] | 770 |
